From patent US20260022142A1, “MACROCYCLIC IMMUNOMODULATORS” (Bristol-Myers Squibb Company, priority 2022, published 2026)
Bridge positions count the residues as written; N and C are the ends. Square brackets hold non-standard residues; d marks the D form. Peptide text beside a SMILES is read from it. * marks the point of attachment. Phe(4-CH2CH2COOH) = N[C@@H](Cc1ccc(CCC(=O)O)cc1)C(=O)O; Trp(βS-Me) = C[C@@H](c1c[nH]c2ccccc12)[C@H](N)C(=O)O; Phe(4-COOH) = N[C@@H](Cc1ccc(C(=O)O)cc1)C(=O)O; Bip = N[C@@H](Cc1ccc(-c2ccccc2)cc1)C(=O)O; Phe(3-F) = N[C@@H](Cc1cccc(F)c1)C(=O)O; Phe(3-Me) = Cc1cccc(C[C@H](N)C(=O)O)c1; Abu(3S-NH2) = C[C@H](N)[C@H](N)C(=O)O; His(π-Me) = Cn1cncc1C[C@H](N)C(=O)O; Val(3-OH) = CC(C)(O)[C@H](N)C(=O)O; 4Pal = N[C@@H](Cc1ccncc1)C(=O)O; Cha = N[C@@H](CC1CCCCC1)C(=O)O; Cit = NC(=O)NCCC[C@H](N)C(=O)O; Carboxymethyl = O=C(O)C*; Orn = NCCC[C@H](N)C(=O)O; Aun = NCCCCCCCCCCC(=O)O; Dab = NCC[C@H](N)C(=O)O; Ac3c = NC1(C(=O)O)CC1

Target: T1, PD-1/PD-L1 interaction (PE-labeled human PD-L1-Ig binding to Jurkat cell line over-expressing human PD-1) (Homo sapiens, UniProt Q15116)
T1 construct: expressed in transfected cells; host or cells: Jurkat
Experiment: Jurkat-PD-1 Cell Binding High-Content Screening Assay (CBA)
Assay type: cell-based
Details: Jurkat cell line over-expressing human PD-1; PE-labeled PD-L1-Ig 20 nM final; read-out: Jurkat hPD1-PDL1 IC50
Procedure, shortened: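 Jurkat cells over-expressing human PD-1 (8×10^3 per well, DMEM/10% FCS) preincubated with compound 2 h at 37° C, then PE-labeled human PD-L1-Ig (20 nM final) added for 1 h. Cells fixed with paraformaldehyde, Hoechst-stained, and bound fluorescence quantified by high-content imaging.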

T1 sequence (Q15116 25-288): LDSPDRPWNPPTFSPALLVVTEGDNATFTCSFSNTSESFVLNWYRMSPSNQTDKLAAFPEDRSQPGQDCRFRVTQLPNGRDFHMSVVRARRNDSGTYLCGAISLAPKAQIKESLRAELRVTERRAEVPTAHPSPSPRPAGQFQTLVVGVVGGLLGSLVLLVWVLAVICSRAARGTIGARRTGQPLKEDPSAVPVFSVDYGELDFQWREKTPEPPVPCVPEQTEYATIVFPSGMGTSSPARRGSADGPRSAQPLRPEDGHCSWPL

Row | Structure (SMILES) | IC50
1 | CC(C)C[C@H]1NC(=O)[C@H](CCCN)NC(=O)[C@H](Cc2ccc(O)cc2)NC(=O)[C@H](Cc2ccc(-c3ccccc3)cc2)NC(=O)[C@H](C(C)C)NC(=O)[C@H]([C@@H](C)c2c[nH]c3ccccc23)NC(=O)[C@H](CC(=O)O)NC(=O)[C@H](Cc2ccc(OCC(=O)O)cc2)NC(=O)[C@H](CCCNC(=N)N)NC(=O)CSC[C@@H](C(=O)NC2(C(=O)NCCCCCCCCCCC(=O)O)CC2)NC(=O)[C@H]([C@@H](C)O)NC(=O)[C@H](C(C)C)NC(=O)[C@H](CC2CCCCC2)NC(=O)[C@H](CCN)NC1=O [Compound 2133] ({CH2CO}-RY(Carboxymethyl)D[Trp(βS-Me)]V[Bip]Y[Orn][dL][Dab][Cha]VTC[Ac3c][Aun]-OH; thioether N-14) | 58.8 nM
2 | CC(C)C[C@H]1NC(=O)[C@H](CCCN)NC(=O)[C@H](CCCNC(N)=O)NC(=O)[C@H](Cc2ccc(-c3ccccc3)cc2)NC(=O)[C@H](C(C)C)NC(=O)[C@H]([C@@H](C)c2c[nH]c3ccccc23)NC(=O)[C@H](CC(=O)O)NC(=O)[C@H](Cc2ccc(OCC(=O)O)cc2)NC(=O)[C@H](CCCNC(=N)N)NC(=O)CSC[C@@H](C(=O)NC2(C(=O)NCCCCCCCCCCC(=O)O)CC2)NC(=O)[C@H]([C@@H](C)O)NC(=O)[C@H](C(C)C)NC(=O)[C@H](CC2CCCCC2)NC(=O)[C@H](CCN)NC1=O [Compound 2134] ({CH2CO}-RY(Carboxymethyl)D[Trp(βS-Me)]V[Bip][Cit][Orn][dL][Dab][Cha]VTC[Ac3c][Aun]-OH; thioether N-14) | 38.5 nM
3 | CC(C)C[C@H]1NC(=O)[C@H](CCCN)NC(=O)[C@H](Cc2ccc(OCC(=O)O)cc2)NC(=O)[C@H](Cc2ccc(-c3ccccc3)cc2)NC(=O)[C@H](Cc2ccc(OCC(=O)O)cc2)NC(=O)[C@H]([C@@H](C)c2c[nH]c3ccccc23)NC(=O)[C@H](CC(=O)O)NC(=O)[C@H](Cc2ccc(OCC(=O)O)cc2)NC(=O)[C@H](CCCNC(=N)N)NC(=O)CSC[C@@H](C(=O)NC2(C(=O)NCCCCCCCCCCC(=O)O)CC2)NC(=O)[C@H]([C@@H](C)O)NC(=O)[C@H](C(C)C)NC(=O)[C@H](CC2CCCCC2)NC(=O)[C@H](CCN)NC1=O [Compound 2135] ({CH2CO}-RY(Carboxymethyl)D[Trp(βS-Me)]Y(Carboxymethyl)[Bip]Y(Carboxymethyl)[Orn][dL][Dab][Cha]VTC[Ac3c][Aun]-OH; thioether N-14) | 68.8 nM
4 | Cc1cccc(C[C@@H]2NC(=O)[C@H](CC(=O)O)NC(=O)[C@H](Cc3ccc(OCC(=O)O)cc3)NC(=O)[C@H](CCCNC(=N)N)NC(=O)CSC[C@@H](C(=O)NC3(C(=O)NCCCCCCCCCCC(=O)O)CC3)NC(=O)[C@H](CCCN)NC(=O)[C@H](C(C)C)NC(=O)[C@H](CC3CCCCC3)NC(=O)[C@H](CCN)NC(=O)[C@@H](CC(C)C)NC(=O)[C@H](CCCN)NC(=O)[C@H](Cc3ccc(OCC(=O)O)cc3)NC(=O)[C@H](Cc3ccc(-c4ccccc4)cc3)NC(=O)[C@H](Cc3ccc(OCC(=O)O)cc3)NC2=O)c1 [Compound 2136] ({CH2CO}-RY(Carboxymethyl)D[Phe(3-Me)]Y(Carboxymethyl)[Bip]Y(Carboxymethyl)[Orn][dL][Dab][Cha]V[Orn]C[Ac3c][Aun]-OH; thioether N-14) | 3.1 nM
5 | Cc1cccc(C[C@@H]2NC(=O)[C@H](CC(=O)O)NC(=O)[C@H](Cc3ccc(OCC(=O)O)cc3)NC(=O)[C@H](CCCNC(=N)N)NC(=O)CSC[C@@H](C(=O)NC3(C(=O)NCCCCCCCCCCC(=O)O)CC3)NC(=O)[C@H](CCC(N)=O)NC(=O)[C@H](C(C)C)NC(=O)[C@H](CC3CCCCC3)NC(=O)[C@H](CCN)NC(=O)[C@@H](CC(C)C)NC(=O)[C@H](CCCN)NC(=O)[C@H](Cc3ccc(OCC(=O)O)cc3)NC(=O)[C@H](Cc3ccc(-c4ccccc4)cc3)NC(=O)[C@H](Cc3ccc(OCC(=O)O)cc3)NC2=O)c1 [Compound 2137] ({CH2CO}-RY(Carboxymethyl)D[Phe(3-Me)]Y(Carboxymethyl)[Bip]Y(Carboxymethyl)[Orn][dL][Dab][Cha]VQC[Ac3c][Aun]-OH; thioether N-14) | 9.1 nM
6 | CC(C)C[C@H]1NC(=O)[C@H](CCCN)NC(=O)[C@H](Cc2ccc(OCC(=O)O)cc2)NC(=O)[C@H](Cc2ccc(-c3ccccc3)cc2)NC(=O)[C@H](Cc2ccc(OCC(=O)O)cc2)NC(=O)[C@H]([C@@H](C)c2c[nH]c3ccccc23)NC(=O)[C@H](CC(=O)O)NC(=O)[C@H](Cc2ccc(OCC(=O)O)cc2)NC(=O)[C@H](CCCNC(=N)N)NC(=O)CSC[C@@H](C(=O)N[C@@H](CCN)C(=O)NCCCCCCCCCCC(=O)O)NC(=O)[C@H]([C@@H](C)O)NC(=O)[C@H](C(C)C)NC(=O)[C@H](CC2CCCCC2)NC(=O)[C@H](CCN)NC1=O [Compound 2138] ({CH2CO}-RY(Carboxymethyl)D[Trp(βS-Me)]Y(Carboxymethyl)[Bip]Y(Carboxymethyl)[Orn][dL][Dab][Cha]VTC[Dab][Aun]-OH; thioether N-14) | 109 nM

Next, values leading:

Row | IC50 | Structure (SMILES)
7 | 21.1 nM | Cc1cccc(C[C@@H]2NC(=O)[C@H](CC(=O)O)NC(=O)[C@H](Cc3ccc(OCC(=O)O)cc3)NC(=O)[C@H](CCCNC(=N)N)NC(=O)CSC[C@@H](C(=O)N[C@@H](CCN)C(=O)NCCCCCCCCCCC(=O)O)NC(=O)[C@H]([C@@H](C)O)NC(=O)[C@H](C(C)C)NC(=O)[C@H](CC3CCCCC3)NC(=O)[C@H](CCN)NC(=O)[C@@H](CC(C)C)NC(=O)[C@H](C)NC(=O)[C@H](C(C)(C)O)NC(=O)[C@H](Cc3ccc(-c4ccccc4)cc3)NC(=O)[C@H](Cc3ccc(OCC(=O)O)cc3)NC2=O)c1 [Compound 2139] ({CH2CO}-RY(Carboxymethyl)D[Phe(3-Me)]Y(Carboxymethyl)[Bip][Val(3-OH)]A[dL][Dab][Cha]VTC[Dab][Aun]-OH; thioether N-14)
8 | 11.6 nM | Cc1cccc(C[C@@H]2NC(=O)[C@H](CC(=O)O)NC(=O)[C@H](Cc3ccc(OCC(=O)O)cc3)NC(=O)[C@H](CCCNC(=N)N)NC(=O)CSC[C@@H](C(=O)N[C@@H](CCN)C(=O)NCCCCCCCCCCC(=O)O)NC(=O)[C@H](CCC(N)=O)NC(=O)[C@H](C(C)C)NC(=O)[C@H](CC3CCCCC3)NC(=O)[C@H](CCN)NC(=O)[C@@H](CC(C)C)NC(=O)[C@H](CCCN)NC(=O)[C@H](C(C)(C)O)NC(=O)[C@H](Cc3ccc(-c4ccccc4)cc3)NC(=O)[C@H](Cc3ccc(OCC(=O)O)cc3)NC2=O)c1 [Compound 2140] ({CH2CO}-RY(Carboxymethyl)D[Phe(3-Me)]Y(Carboxymethyl)[Bip][Val(3-OH)][Orn][dL][Dab][Cha]VQC[Dab][Aun]-OH; thioether N-14)
9 | 10.9 nM | Cc1cccc(C[C@@H]2NC(=O)[C@H](CC(=O)O)NC(=O)[C@H](Cc3ccc(OCC(=O)O)cc3)NC(=O)[C@H](Cc3cncn3C)NC(=O)CSC[C@@H](C(=O)N[C@@H](CCN)C(=O)NCCCCCCCCCCC(=O)O)NC(=O)[C@H](CO)NC(=O)[C@H](C(C)(C)O)NC(=O)[C@H](CC3CCCCC3)NC(=O)[C@H](CCN)NC(=O)[C@@H](CC(C)C)NC(=O)[C@H](CCCN)NC(=O)[C@H](Cc3ccc(OCC(=O)O)cc3)NC(=O)[C@H](Cc3ccc(-c4ccccc4)cc3)NC(=O)[C@H](Cc3ccc(OCC(=O)O)cc3)NC2=O)c1 [Compound 2141] ({CH2CO}-[His(π-Me)]Y(Carboxymethyl)D[Phe(3-Me)]Y(Carboxymethyl)[Bip]Y(Carboxymethyl)[Orn][dL][Dab][Cha][Val(3-OH)]SC[Dab][Aun]-OH; thioether N-14)
10 | 9.1 nM | Cc1cccc(C[C@@H]2NC(=O)[C@H](CC(=O)O)NC(=O)[C@H](Cc3ccc(OCC(=O)O)cc3)NC(=O)[C@H](Cc3ccncc3)NC(=O)CSC[C@@H](C(=O)N[C@@H](CCN)C(=O)NCCCCCCCCCCC(=O)O)NC(=O)[C@H]([C@H](C)N)NC(=O)[C@H](C(C)(C)O)NC(=O)[C@H](CC3CCCCC3)NC(=O)[C@H](CCN)NC(=O)[C@@H](CC(C)C)NC(=O)[C@H](CCCN)NC(=O)[C@H](Cc3ccc(OCC(=O)O)cc3)NC(=O)[C@H](Cc3ccc(-c4ccccc4)cc3)NC(=O)[C@H](Cc3ccc(OCC(=O)O)cc3)NC2=O)c1 [Compound 2142] ({CH2CO}-[4Pal]Y(Carboxymethyl)D[Phe(3-Me)]Y(Carboxymethyl)[Bip]Y(Carboxymethyl)[Orn][dL][Dab][Cha][Val(3-OH)][Abu(3S-NH2)]C[Dab][Aun]-OH; thioether N-14)
11 | 12.6 nM | Cc1cccc(C[C@@H]2NC(=O)[C@H](CC(=O)O)NC(=O)[C@H](Cc3ccc(C(=O)O)cc3)NC(=O)[C@H](Cc3ccncc3)NC(=O)CSC[C@@H](C(=O)N[C@@H](CCN)C(=O)NCCCCCCCCCCC(=O)O)NC(=O)[C@H]([C@@H](C)O)NC(=O)[C@H](C(C)C)NC(=O)[C@H](CC(C)C)NC(=O)[C@H](CCN)NC(=O)[C@@H](CC(C)C)NC(=O)[C@H](CCCN)NC(=O)[C@H](Cc3ccc(OCC(=O)O)cc3)NC(=O)[C@H](Cc3ccc(-c4ccccc4)cc3)NC(=O)[C@H](Cc3ccc(OCC(=O)O)cc3)NC2=O)c1 [Compound 2143] ({CH2CO}-[4Pal][Phe(4-COOH)]D[Phe(3-Me)]Y(Carboxymethyl)[Bip]Y(Carboxymethyl)[Orn][dL][Dab]LVTC[Dab][Aun]-OH; thioether N-14)
12 | 7.3 nM | Cc1cccc(C[C@@H]2NC(=O)[C@H](CC(=O)O)NC(=O)[C@H](Cc3ccc(CCC(=O)O)cc3)NC(=O)[C@H](CCN)NC(=O)CSC[C@@H](C(=O)N[C@@H](CCN)C(=O)NCCCCCCCCCCC(=O)O)NC(=O)[C@H](CO)NC(=O)[C@H](C(C)(C)O)NC(=O)[C@H](CC3CCCCC3)NC(=O)[C@H](CCN)NC(=O)[C@@H](CC(C)C)NC(=O)[C@H](CCCN)NC(=O)[C@H](Cc3ccc(OCC(=O)O)cc3)NC(=O)[C@H](Cc3ccc(-c4ccccc4)cc3)NC(=O)[C@H](Cc3cccc(F)c3)NC2=O)c1 [Compound 2144] ({CH2CO}-[Dab][Phe(4-CH2CH2COOH)]D[Phe(3-Me)][Phe(3-F)][Bip]Y(Carboxymethyl)[Orn][dL][Dab][Cha][Val(3-OH)]SC[Dab][Aun]-OH; thioether N-14)
